In US20260234115A1, “LIPID COMPOUNDS, COMPOSITIONS, AND USES THEREOF” (Liberate Bio, Inc., priority 2023, published 2026):
Marks after values point to notes of the source that are not given here.

System: mouse organs
Experiment: In vivo activity screening in mice: organ mean total flux (p/s) of luciferase activity after injection of F2 LNP pools (Table 6, FIG. 7A-7C)
Conditions: luciferase mRNA
Procedure, shortened: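 C57BL/6J mice given one tail-vein injection of pooled Formulation F2 LNPs carrying firefly luciferase mRNA (0.25-3 mg/kg) in PBS. At 4-6 h, s.c. D-luciferin given; organs imaged ex vivo by IVIS within 10-15 min, after saline cardiac perfusion. Mean total flux (p/s) per organ ROI.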

CCCCC/C=C\CCOC(=O)CCCCC(=O)OCC(COC(=O)CCCCC(=O)OCC/C=C\CCCCC)(COC(=O)CCC(CCCCCC)OC(=O)NCCN1CCCC1)COC(=O)C12CCCC1C2 (stereo not shown) [Compound 101, O6-[2-(bicyclo[3.1.0]hexane-1-carbonyloxymethyl)-2-[[6-[(Z)-non-3-enoxy]-6-oxo-hexanoyl]oxymethyl]-3-[4-(2-pyrrolidin-1-ylethylcarbamoyloxy)decanoyloxy]propyl]O1-[(Z)-non-3-enyl]hexanedioate]
Organ Mean Total Flux Femur (Mouse 12, dose 0.5 mg/kg): 9.7 p/s (×10^6) | Organ Mean Total Flux Heart (Mouse 12, dose 0.5 mg/kg): 0.8 p/s (×10^6) | Organ Mean Total Flux Kidney (Mouse 12, dose 0.5 mg/kg): 0.9 p/s (×10^6) | Organ Mean Total Flux Liver (Mouse 12, dose 0.5 mg/kg): 306.7 p/s (×10^6) | Organ Mean Total Flux Lung (Mouse 12, dose 0.5 mg/kg): 26.5 p/s (×10^6) | Organ Mean Total Flux Muscle (Mouse 12, dose 0.5 mg/kg): 5.2 p/s (×10^6) | Organ Mean Total Flux Pancreas (Mouse 12, dose 0.5 mg/kg): 14.3 p/s (×10^6) | Organ Mean Total Flux Spleen (Mouse 12, dose 0.5 mg/kg): 53.2 p/s (×10^6)

CCCCC/C=C\CCOC(=O)CCCCC(=O)OCC(COC(=O)CCCCC(=O)OCC/C=C\CCCCC)(COC(=O)CCC(CCCCCC)OC(=O)NCCN1CCCC1)COC(=O)C12CCC(CC1)CC2 (stereo not shown) [Compound 67, O6-[2-(bicyclo[2.2.2]octane-1-carbonyloxymethyl)-2-[[6-[(Z)-non-3-enoxy]-6-oxo-hexanoyl]-oxymethyl]-3-[4-(2-pyrrolidin-1-ylethylcarbamoyloxy)decanoyloxy]propyl]O1-[(Z)-non-3-enyl]hexanedioate]
Organ Mean Total Flux Femur (Mouse 12, dose 0.5 mg/kg): 10.8 p/s (×10^6) | Organ Mean Total Flux Heart (Mouse 12, dose 0.5 mg/kg): 0.4 p/s (×10^6) | Organ Mean Total Flux Kidney (Mouse 12, dose 0.5 mg/kg): 1.9 p/s (×10^6) | Organ Mean Total Flux Liver (Mouse 12, dose 0.5 mg/kg): 220.0 p/s (×10^6) | Organ Mean Total Flux Lung (Mouse 12, dose 0.5 mg/kg): 11.8 p/s (×10^6) | Organ Mean Total Flux Muscle (Mouse 12, dose 0.5 mg/kg): 22.8 p/s (×10^6) | Organ Mean Total Flux Pancreas (Mouse 12, dose 0.5 mg/kg): 10.4 p/s (×10^6) | Organ Mean Total Flux Spleen (Mouse 12, dose 0.5 mg/kg): 50.1 p/s (×10^6)

CCCCCCCCOC(=O)CCCCCCC(=O)OCC(COC(=O)CCCCCCC(=O)OCCCCCCCC)(COC(=O)CCCCCCC(=O)OCCCCCCCC)COC(=O)CCC(CCCCCC)OC(=O)NCCN1CCCC1 (stereo not shown) [Compound 33, O8-[2,2-bis[(8-octoxy-8-oxo-octanoyl)oxymethyl]-3-[4-(2-pyrrolidin-1-ylethylcarbamoyloxy)decanoyloxy]propyl]O1-octyl octanedioate]
Organ Mean Total Flux Femur (Mouse 6, dose 0.5 mg/kg): 21.3 p/s (×10^6) | Organ Mean Total Flux Heart (Mouse 6, dose 0.5 mg/kg): 2.8 p/s (×10^6) | Organ Mean Total Flux Kidney (Mouse 6, dose 0.5 mg/kg): 3.0 p/s (×10^6) | Organ Mean Total Flux Liver (Mouse 6, dose 0.5 mg/kg): 1024 p/s (×10^6) | Organ Mean Total Flux Lung (Mouse 6, dose 0.5 mg/kg): 16.9 p/s (×10^6) | Organ Mean Total Flux Muscle (Mouse 6, dose 0.5 mg/kg): 53.7 p/s (×10^6) | Organ Mean Total Flux Pancreas (Mouse 6, dose 0.5 mg/kg): 9.2 p/s (×10^6) | Organ Mean Total Flux Spleen (Mouse 6, dose 0.5 mg/kg): 30.1 p/s (×10^6)

CCCCC/C=C\CCOC(=O)CCCCCC(=O)OCC(COC(=O)CCCCCCOC(=O)C(CCCC)CCCCCC)(COC(=O)CCCCCCOC(=O)C(CCCC)CCCCCC)COC(=O)CCC(CCCCCC)OC(=O)NCCN1CCCC1 (stereo not shown) [Compound 17, O7-[2,2-bis[7-(2-butyloctanoyloxy)heptanoyloxymethyl]-3-[4-(2-pyrrolidin-1-ylethylcarbamoyloxy)decanoyloxy]propyl]O1-[(Z)-non-3-enyl]heptanedioate]
Organ Mean Total Flux Femur (Mouse 2, dose 1.0 mg/kg): 8.0 p/s (×10^6) | Organ Mean Total Flux Heart (Mouse 2, dose 1.0 mg/kg): 13.0 p/s (×10^6) | Organ Mean Total Flux Kidney (Mouse 2, dose 1.0 mg/kg): 7.6 p/s (×10^6) | Organ Mean Total Flux Liver (Mouse 2, dose 1.0 mg/kg): 11856 p/s (×10^6) | Organ Mean Total Flux Lung (Mouse 2, dose 1.0 mg/kg): 59.3 p/s (×10^6) | Organ Mean Total Flux Muscle (Mouse 2, dose 1.0 mg/kg): 30.7 p/s (×10^6) | Organ Mean Total Flux Pancreas (Mouse 2, dose 1.0 mg/kg): 3.0 p/s (×10^6) | Organ Mean Total Flux Spleen (Mouse 2, dose 1.0 mg/kg): 5.5 p/s (×10^6)

CCCCCCCCCC(C)OC(=O)CCCCCCC(=O)OCC(COC(=O)CCCCCCC(=O)OC(C)CCCCCCCCC)(COC(=O)CCCCCCC(=O)OC(C)CCCCCCCCC)COC(=O)CCC(CCCCCC)OC(=O)NCCN1CCCC1 (stereo not shown) [Compound 41, O1-[2,2-bis[[8-(1-methyldecoxy)-8-oxo-octanoyl]oxymethyl]-3-[4-(2-pyrrolidin-1-ylethylcarbamoyloxy)decanoyloxy]propyl]O8-(1-methyldecyl) octanedioate]
Organ Mean Total Flux Femur (Mouse 5, dose 0.5 mg/kg): 3.8 p/s (×10^6) | Organ Mean Total Flux Heart (Mouse 5, dose 0.5 mg/kg): 2.2 p/s (×10^6) | Organ Mean Total Flux Kidney (Mouse 5, dose 0.5 mg/kg): 2.8 p/s (×10^6) | Organ Mean Total Flux Liver (Mouse 5, dose 0.5 mg/kg): 3493 p/s (×10^6) | Organ Mean Total Flux Lung (Mouse 5, dose 0.5 mg/kg): 18.0 p/s (×10^6) | Organ Mean Total Flux Muscle (Mouse 5, dose 0.5 mg/kg): 10.0 p/s (×10^6) | Organ Mean Total Flux Pancreas (Mouse 5, dose 0.5 mg/kg): 0.8 p/s (×10^6) | Organ Mean Total Flux Spleen (Mouse 5, dose 0.5 mg/kg): 2.5 p/s (×10^6)

CCCCCCC(CCC(=O)OCC(COC(=O)CCCCCCOC(=O)C(CCCC)CCCCCC)(COC(=O)CCCCCCOC(=O)C(CCCC)CCCCCC)COC(=O)CC12CC3CC(CC(C3)C1)C2)OC(=O)NCCN1CCCC1 (stereo not shown) [Compound 57, [7-[2-[[2-(1-adamantyl)acetyl]oxymethyl]-2-[7-(2-butyloctanoyloxy)heptanoyloxymethyl]-3-[4-(2-pyrrolidin-1-ylethylcarbamoyloxy)decanoyloxy]propoxy]-7-oxo-heptyl]2-butyloctanoate]
Organ Mean Total Flux Femur (Mouse 3, dose 1.0 mg/kg): 7.4 p/s (×10^6) | Organ Mean Total Flux Heart (Mouse 3, dose 1.0 mg/kg): 16.1 p/s (×10^6) | Organ Mean Total Flux Kidney (Mouse 3, dose 1.0 mg/kg): 11.4 p/s (×10^6) | Organ Mean Total Flux Liver (Mouse 3, dose 1.0 mg/kg): 25033 p/s (×10^6) | Organ Mean Total Flux Lung (Mouse 3, dose 1.0 mg/kg): 71.8 p/s (×10^6) | Organ Mean Total Flux Muscle (Mouse 3, dose 1.0 mg/kg): 16.4 p/s (×10^6) | Organ Mean Total Flux Pancreas (Mouse 3, dose 1.0 mg/kg): 2.7 p/s (×10^6) | Organ Mean Total Flux Spleen (Mouse 3, dose 1.0 mg/kg): 6.5 p/s (×10^6)

CCCCC/C=C\CCOC(=O)CCCCC(=O)OCC(COC(=O)CCCCC(=O)OCC/C=C\CCCCC)(COC(=O)CCCCC(=O)OCC/C=C\CCCCC)COC(=O)CCC(CCCCCC)OC(=O)NCCN1CCCC1 (stereo not shown) [Compound 13, O6-[2,2-bis[[6-[(Z)-non-3-enoxy]-6-oxo-hexanoyl]oxymethyl]-3-[4-(2-pyrrolidin-1-ylethylcarbamoyloxy)decanoyloxy]propyl]O1-[(Z)-non-3-enyl]hexanedioate]
Organ Mean Total Flux Femur (Mouse 12, dose 0.5 mg/kg): 4.8 p/s (×10^6) | Organ Mean Total Flux Heart (Mouse 12, dose 0.5 mg/kg): 1.0 p/s (×10^6) | Organ Mean Total Flux Kidney (Mouse 12, dose 0.5 mg/kg): 4.5 p/s (×10^6) | Organ Mean Total Flux Liver (Mouse 12, dose 0.5 mg/kg): 620.0 p/s (×10^6) | Organ Mean Total Flux Lung (Mouse 12, dose 0.5 mg/kg): 16.7 p/s (×10^6) | Organ Mean Total Flux Muscle (Mouse 12, dose 0.5 mg/kg): 17.0 p/s (×10^6) | Organ Mean Total Flux Pancreas (Mouse 12, dose 0.5 mg/kg): 1.1 p/s (×10^6) | Organ Mean Total Flux Spleen (Mouse 12, dose 0.5 mg/kg): 21.3 p/s (×10^6)

CCCCC/C=C\CCOC(=O)CCCCC(=O)OCC(COC(=O)CCCCC(=O)OCC/C=C\CCCCC)(COC(=O)CCC(CCCCCC)OC(=O)NCCN1CCCC1)COC(=O)C1CC2C(C1)C2(F)F (stereo not shown) [Compound 81, O6-[2-[(6,6-difluorobicyclo[3.1.0]hexane-3-carbonyl)oxymethyl]-2-[[6-[(Z)-non-3-enoxy]-6-oxo-hexanoyl]oxymethyl]-3-[4-(2-pyrrolidin-1-ylethylcarbamoyloxy)decanoyloxy]propyl]O1-[(Z)-non-3-enyl]hexanedioate]
Organ Mean Total Flux Femur (Mouse 12, dose 0.5 mg/kg): 11.1 p/s (×10^6) | Organ Mean Total Flux Heart (Mouse 12, dose 0.5 mg/kg): 1.2 p/s (×10^6) | Organ Mean Total Flux Kidney (Mouse 12, dose 0.5 mg/kg): 4.0 p/s (×10^6) | Organ Mean Total Flux Liver (Mouse 12, dose 0.5 mg/kg): 727.0 p/s (×10^6) | Organ Mean Total Flux Lung (Mouse 12, dose 0.5 mg/kg): 12.1 p/s (×10^6) | Organ Mean Total Flux Muscle (Mouse 12, dose 0.5 mg/kg): 5.7 p/s (×10^6) | Organ Mean Total Flux Pancreas (Mouse 12, dose 0.5 mg/kg): 12.9 p/s (×10^6) | Organ Mean Total Flux Spleen (Mouse 12, dose 0.5 mg/kg): 115.9 p/s (×10^6)

CCCCCCCCCCOC(=O)CCCCCCC(=O)OCC(COC(=O)CCCCCCC(=O)OCCCCCCCCCC)(COC(=O)CCCCCCC(=O)OCCCCCCCCCC)COC(=O)CCC(CCCCCC)OC(=O)NCCN1CCCC1 (stereo not shown) [Compound 35, O8-[2,2-bis[(8-decoxy-8-oxo-octanoyl)oxymethyl]-3-[4-(2-pyrrolidin-1ylethylcarbamoyloxy)decanoyloxy]propyl]O1-decyloctanedioate]
Organ Mean Total Flux Femur (Mouse 6, dose 0.5 mg/kg): 4.2 p/s (×10^6) | Organ Mean Total Flux Heart (Mouse 6, dose 0.5 mg/kg): 1.3 p/s (×10^6) | Organ Mean Total Flux Kidney (Mouse 6, dose 0.5 mg/kg): 1.3 p/s (×10^6) | Organ Mean Total Flux Liver (Mouse 6, dose 0.5 mg/kg): 850.3 p/s (×10^6) | Organ Mean Total Flux Lung (Mouse 6, dose 0.5 mg/kg): 11.0 p/s (×10^6) | Organ Mean Total Flux Muscle (Mouse 6, dose 0.5 mg/kg): 15.5 p/s (×10^6) | Organ Mean Total Flux Pancreas (Mouse 6, dose 0.5 mg/kg): 2.5 p/s (×10^6) | Organ Mean Total Flux Spleen (Mouse 6, dose 0.5 mg/kg): 5.4 p/s (×10^6)

CCCCCCCCCOC(=O)CCCCC(=O)OCC(COC(=O)CCCCC(=O)OCCCCCCCCC)(COC(=O)CCCCC(=O)OCCCCCCCCC)COC(=O)CCC(CCCCCC)OC(=O)NCCN1CCCC1 (stereo not shown) [Compound 50, O6-[2,2-bis[(6-nonoxy-6-oxo-hexanoyl)oxymethyl]-3-[4-(2-pyrrolidin-1-ylethylcarbamoyloxy)decanoyloxy]propyl]O1-nonyl hexanedioate]
Organ Mean Total Flux Femur (Mouse 3, dose 1.0 mg/kg): 3.8 p/s (×10^6) | Organ Mean Total Flux Heart (Mouse 3, dose 1.0 mg/kg): 3.1 p/s (×10^6) | Organ Mean Total Flux Kidney (Mouse 3, dose 1.0 mg/kg): 2.1 p/s (×10^6) | Organ Mean Total Flux Liver (Mouse 3, dose 1.0 mg/kg): 2413 p/s (×10^6) | Organ Mean Total Flux Lung (Mouse 3, dose 1.0 mg/kg): 12.1 p/s (×10^6) | Organ Mean Total Flux Muscle (Mouse 3, dose 1.0 mg/kg): 3.8 p/s (×10^6) | Organ Mean Total Flux Pancreas (Mouse 3, dose 1.0 mg/kg): 8.8 p/s (×10^6) | Organ Mean Total Flux Spleen (Mouse 3, dose 1.0 mg/kg): 9.0 p/s (×10^6) | Organ Mean Total Flux Femur (Mouse 13, dose 0.5 mg/kg): 1.2 p/s (×10^6) | Organ Mean Total Flux Heart (Mouse 13, dose 0.5 mg/kg): 1.0 p/s (×10^6) | Organ Mean Total Flux Kidney (Mouse 13, dose 0.5 mg/kg): 0.7 p/s (×10^6) | Organ Mean Total Flux Liver (Mouse 13, dose 0.5 mg/kg): 569.7 p/s (×10^6) | Organ Mean Total Flux Lung (Mouse 13, dose 0.5 mg/kg): 4.7 p/s (×10^6) | Organ Mean Total Flux Muscle (Mouse 13, dose 0.5 mg/kg): 2.3 p/s (×10^6) | Organ Mean Total Flux Pancreas (Mouse 13, dose 0.5 mg/kg): 1.5 p/s (×10^6) | Organ Mean Total Flux Spleen (Mouse 13, dose 0.5 mg/kg): 4.7 p/s (×10^6)
